Values joined by “and” are separate entries in the source; they are usually repeats but may differ in a detail not shown here. Identical values can stand only once. Like-named read-outs stand apart in the source and are kept apart here.
Assay: Topotecan PK following Compound 1 infusion
Format: in vivo, human
Details: human, plasma, intravenous
Description: Blood samples were obtained prior to dosing, at the end of the 30-minute infusion (EOI), and at 0.5, 1, 1.5, 2, 2.5, 4, 6, 8, and 24 hours after the end of infusion. Analysis of plasma concentration versus time data for calculation of standard pharmacokinetic (PK) parameters following intravenous infusion administration was conducted using Phoenix WinNonlin version 6.3 using a nominal infusion duration and scheduled blood sampling times. In Cohort 2 there were 3 subjects who received 1.25 mg/m^2 of topotecan once daily on Days 1 to 5. In Cohort 3 there were 4 subjects who received 0.75 mg/m^2 of topotecan once daily on Days 1 to 5.

Work on `CC[C@@]1(O)C(=O)OCc2c1cc1n(c2=O)Cc2cc3c(CN(C)C)c(O)ccc3nc2-1.Cl` [topotecan, (S)-10-[(dimethylamino)methyl]-4-ethyl-4,9-dihydroxy-1H-pyrano[3′,4′:6,7]indolizino[1,2-b]quinoline-3,14(4H,12H)-dione monohydrochloride] yielded a Cmax (Topotecan 0.75 mg/m^2 (Cohort 3) with Compound 1 200 mg/m^2, Day 1, Mean, read-out: Cmax) of 27.3 ng/mL, a half-life (Topotecan 0.75 mg/m^2 (Cohort 3) with Compound 1 200 mg/m^2, Day 1, Mean, read-out: t½ (converted)) of 4.33 h and an AUC (Topotecan 0.75 mg/m^2 (Cohort 3) with Compound 1 200 mg/m^2, Day 1, Median, read-out: AUC24.5) of 89.1 ng·h/mL. The AUC(0-inf) (Topotecan 0.75 mg/m^2 (Cohort 3) with Compound 1 200 mg/m^2, Day 1, Median, read-out: AUCinf (converted)) was 90.8 ng·h/mL and 0.198 µM·h, the AUC (Topotecan 0.75 mg/m^2 (Cohort 3) with Compound 1 200 mg/m^2, Day 1, Median, read-out: AUCx5 (converted)) was 0.992 µM·h and the Cmax (Topotecan 0.75 mg/m^2 (Cohort 3) with Compound 1 200 mg/m^2, Day 1, Median, read-out: Cmax) was 26.4 ng/mL. For the same molecule, the half-life (Topotecan 0.75 mg/m^2 (Cohort 3) with Compound 1 200 mg/m^2, Day 1, Median, read-out: t½ (converted)) was 4.3 h, the AUC (Topotecan 0.75 mg/m^2 (Cohort 3) with Compound 1 200 mg/m^2, Day 1, individual subjects, read-out: AUC24.5) was 83.5 ng·h/mL and the AUC(0-inf) (Topotecan 0.75 mg/m^2 (Cohort 3) with Compound 1 200 mg/m^2, Day 1, individual subjects, read-out: AUCinf (converted)) was 84.8 ng·h/mL and 0.185 µM·h. The AUC (Topotecan 0.75 mg/m^2 (Cohort 3) with Compound 1 200 mg/m^2, Day 1, individual subjects, read-out: AUCx5 (converted)) was 0.927 µM·h, the half-life (Topotecan 0.75 mg/m^2 (Cohort 3) with Compound 1 200 mg/m^2, Day 1, individual subjects, read-out: t½ (converted)) was 4.32 h and the AUC (Topotecan 0.75 mg/m^2 (Cohort 3) with Compound 1 200 mg/m^2, Day 4, Mean, read-out: AUCτ (converted)) was 92.4 ng·h/mL and 0.202 µM·h. For the same molecule, the Cmax (Topotecan 0.75 mg/m^2 (Cohort 3) with Compound 1 200 mg/m^2, Day 4, Mean, read-out: Cmax) was 24.5 ng/mL, the half-life (Topotecan 0.75 mg/m^2 (Cohort 3) with Compound 1 200 mg/m^2, Day 4, Mean, read-out: t½ (converted)) was 4.78 h and the AUC (Topotecan 0.75 mg/m^2 (Cohort 3) with Compound 1 200 mg/m^2, Day 4, Median, read-out: AUCτ (converted)) was 91.7 ng·h/mL and 0.2 µM·h. The Cmax (Topotecan 0.75 mg/m^2 (Cohort 3) with Compound 1 200 mg/m^2, Day 4, Median, read-out: Cmax) was 24.5 ng/mL, the half-life (Topotecan 0.75 mg/m^2 (Cohort 3) with Compound 1 200 mg/m^2, Day 4, Median, read-out: t½ (converted)) was 4.7 h and the AUC (Topotecan 0.75 mg/m^2 (Cohort 3) with Compound 1 200 mg/m^2, Day 4, individual subjects, read-out: AUCτ (converted)) was 83.7 ng·h/mL and 0.183 µM·h. It also gave a Cmax (Topotecan 0.75 mg/m^2 (Cohort 3) with Compound 1 200 mg/m^2, Day 4, individual subjects, read-out: Cmax) of 26.4 ng/mL, a half-life (Topotecan 0.75 mg/m^2 (Cohort 3) with Compound 1 200 mg/m^2, Day 4, individual subjects, read-out: t½ (converted)) of 4.63 h and an AUC (Topotecan 1.25 mg/m^2 (Cohort 2) with Compound 1 200 mg/m^2, Day 1, Mean, read-out: AUC24.5) of 175 ng·h/mL. The AUC(0-inf) (Topotecan 1.25 mg/m^2 (Cohort 2) with Compound 1 200 mg/m^2, Day 1, Mean, read-out: AUCinf (converted)) was 180 ng·h/mL and 0.392 µM·h, the AUC (Topotecan 1.25 mg/m^2 (Cohort 2) with Compound 1 200 mg/m^2, Day 1, Mean, read-out: AUCx5 (converted)) was 1.97 µM·h and the Cmax (Topotecan 1.25 mg/m^2 (Cohort 2) with Compound 1 200 mg/m^2, Day 1, Mean, read-out: Cmax) was 63.7 ng/mL. For the same molecule, the half-life (Topotecan 1.25 mg/m^2 (Cohort 2) with Compound 1 200 mg/m^2, Day 1, Mean, read-out: t½ (converted)) was 4.93 h, the AUC (Topotecan 1.25 mg/m^2 (Cohort 2) with Compound 1 200 mg/m^2, Day 1, Median, read-out: AUC24.5) was 159 ng·h/mL and the AUC(0-inf) (Topotecan 1.25 mg/m^2 (Cohort 2) with Compound 1 200 mg/m^2, Day 1, Median, read-out: AUCinf (converted)) was 162 ng·h/mL and 0.355 µM·h. The AUC (Topotecan 1.25 mg/m^2 (Cohort 2) with Compound 1 200 mg/m^2, Day 1, Median, read-out: AUCx5 (converted)) was 1.77 µM·h, the Cmax (Topotecan 1.25 mg/m^2 (Cohort 2) with Compound 1 200 mg/m^2, Day 1, Median, read-out: Cmax) was 57.7 ng/mL and the half-life (Topotecan 1.25 mg/m^2 (Cohort 2) with Compound 1 200 mg/m^2, Day 1, Median, read-out: t½ (converted)) was 4.92 h. For the same molecule, the half-life (Topotecan 1.25 mg/m^2 (Cohort 2) with Compound 1 200 mg/m^2, Day 1, individual subjects, read-out: t½ (converted)) was 4.78 h, the AUC (Topotecan 1.25 mg/m^2 (Cohort 2) with Compound 1 200 mg/m^2, Day 4, Mean, read-out: AUCτ (converted)) was 171 ng·h/mL and 0.375 µM·h and the Cmax (Topotecan 1.25 mg/m^2 (Cohort 2) with Compound 1 200 mg/m^2, Day 4, Mean, read-out: Cmax) was 59.6 ng/mL. The AUC (Topotecan 1.25 mg/m^2 (Cohort 2) with Compound 1 200 mg/m^2, Day 4, Median, read-out: AUCτ (converted)) was 158 ng·h/mL and 0.345 µM·h, the Cmax (Topotecan 1.25 mg/m^2 (Cohort 2) with Compound 1 200 mg/m^2, Day 4, Median, read-out: Cmax) was 41.8 ng/mL and the half-life (Topotecan 1.25 mg/m^2 (Cohort 2) with Compound 1 200 mg/m^2, Day 4, Median, read-out: t½ (converted)) was 5.39 h. The AUC (Topotecan 1.25 mg/m^2 (Cohort 2) with Compound 1 200 mg/m^2, Day 4, individual subjects, read-out: AUCτ (converted)) was 158 ng·h/mL and 0.345 µM·h, the half-life (Topotecan 1.25 mg/m^2 (Cohort 2) with Compound 1 200 mg/m^2, Day 4, individual subjects, read-out: t½ (converted)) was 5.39 h and the AUC (Topotecan […]^2 (Cohort 1) with Compound 1 200 mg/m^2, Day 1, Mean, read-out: AUC24.5) was 150 ng·h/mL. It also gave an AUC (Topotecan […]^2 (Cohort 1) with Compound 1 200 mg/m^2, Day 1, Mean, read-out: AUCx5 (converted)) of 1.66 µM·h, a Cmax (Topotecan […]^2 (Cohort 1) with Compound 1 200 mg/m^2, Day 1, Mean, read-out: Cmax) of 69.5 ng/mL and a half-life (Topotecan […]^2 (Cohort 1) with Compound 1 200 mg/m^2, Day 1, Mean, read-out: t½ (converted)) of 4.33 h. It also gave an AUC (Topotecan […]^2 (Cohort 1) with Compound 1 200 mg/m^2, Day 1, Median, read-out: AUC24.5) of 150 ng·h/mL, an AUC (Topotecan […]^2 (Cohort 1) with Compound 1 200 mg/m^2, Day 1, Median, read-out: AUCx5 (converted)) of 1.66 µM·h and a Cmax (Topotecan […]^2 (Cohort 1) with Compound 1 200 mg/m^2, Day 1, Median, read-out: Cmax) of 69.5 ng/mL. For the same molecule, the half-life (Topotecan […]^2 (Cohort 1) with Compound 1 200 mg/m^2, Day 1, Median, read-out: t½ (converted)) was 4.33 h, the AUC (Topotecan […]^2 (Cohort 1) with Compound 1 200 mg/m^2, Day 1, individual subjects, read-out: AUC24.5) was 130 ng·h/mL and the AUC (Topotecan […]^2 (Cohort 1) with Compound 1 200 mg/m^2, Day 1, individual subjects, read-out: AUCx5 (converted)) was 1.44 µM·h. It also gave a half-life (Topotecan […]^2 (Cohort 1) with Compound 1 200 mg/m^2, Day 1, individual subjects, read-out: t½ (converted)) of 4.56 h, a Cmax (Topotecan […]^2 (Cohort 1) with Compound 1 200 mg/m^2, Day 4, Mean, read-out: Cmax) of 89.3 ng/mL and a half-life (Topotecan […]^2 (Cohort 1) with Compound 1 200 mg/m^2, Day 4, Mean, read-out: t½ (converted)) of 4.87 h. For the same molecule, the Cmax (Topotecan […]^2 (Cohort 1) with Compound 1 200 mg/m^2, Day 4, Median, read-out: Cmax) was 89.3 ng/mL, the half-life (Topotecan […]^2 (Cohort 1) with Compound 1 200 mg/m^2, Day 4, Median, read-out: t½ (converted)) was 4.87 h and the half-life (Topotecan […]^2 (Cohort 1) with Compound 1 200 mg/m^2, Day 4, individual subjects, read-out: t½ (converted)) was 5.11 h. The AUC(0-inf) (topotecan 0.75 mg/m^2 (Cohort 3) after Compound 1 200 mg/m^2, Day 1, mean, read-out: AUCinf averaged) was 94.4 ng·h/mL, the Cmax (topotecan 0.75 mg/m^2 (Cohort 3) after Compound 1 200 mg/m^2, Day 1, mean, read-out: Cmax averaged) was 27.3 ng/mL and the half-life (topotecan 0.75 mg/m^2 (Cohort 3) after Compound 1 200 mg/m^2, Day 1, mean, read-out: Half-lives averaged (converted)) was 4.33 h. The Cmax (topotecan 0.75 mg/m^2 (Cohort 3) after Compound 1 200 mg/m^2, Day 4, mean, read-out: Cmax averaged) was 24.5 ng/mL, the AUC(0-inf) (topotecan 1.25 mg/m^2 (Cohort 2) after Compound 1 200 mg/m^2, Day 1, mean, read-out: AUCinf averaged) was 180 ng·h/mL and the Cmax (topotecan 1.25 mg/m^2 (Cohort 2) after Compound 1 200 mg/m^2, Day 1, mean, read-out: Cmax averaged) was 63.7 ng/mL. The half-life (topotecan 1.25 mg/m^2 (Cohort 2) after Compound 1 200 mg/m^2, Day 1, mean, read-out: Half-lives averaged (converted)) was 4.93 h, the Cmax (topotecan 1.25 mg/m^2 (Cohort 2) after Compound 1 200 mg/m^2, Day 4, mean, read-out: Cmax averaged) was 59.6 ng/mL and the AUC(0-inf) (topotecan […]^2 (Cohort 1) after Compound 1 200 mg/m^2, Day 1, mean, read-out: AUCinf averaged) was 152 ng·h/mL. For the same molecule, the Cmax (topotecan […]^2 (Cohort 1) after Compound 1 200 mg/m^2, Day 1, mean, read-out: Cmax averaged) was 69.5 ng/mL, the half-life (topotecan […]^2 (Cohort 1) after Compound 1 200 mg/m^2, Day 1, mean, read-out: Half-lives averaged (converted)) was 4.33 h and the Cmax (topotecan […]^2 (Cohort 1) after Compound 1 200 mg/m^2, Day 4, mean, read-out: Cmax averaged) was 89.3 ng/mL. It also gave a half-life (read-out: t½ (converted)) of 5.45 h.

Reference: patent US20160220569A1, “CDK4/6 Inhibitor Dosage Formulations For The Protection Of Hematopoietic Stem And Progenitor Cells During Chemotherapy” (G1 Therapeutics, Inc., priority 2015, published 2016)
